Where two headings read alike, the source gives them in different places.
Legend:
Format in all cases: cell-based
p70S6K = assay: Luminex multiplex assay, p70S6K phosphorylation in cell lysates
GSK-3β = assay: MSD assay, GSK-3β phosphorylation in cell lysates
Phospho-p70S6K (T389) = assay: MSD assay, phospho-p70S6K (T389) in cell lysates
Method: Determination of Phospho-p70S6K (T389) in Cell Lysates.
MSD® biomarker detection assays provide a rapid and convenient method for measuring the total and phosphorylated levels of protein targets within a single small-volume sample. In the assay, an antibody for a specific protein target is coated on one electrode (or spot) per well. The samples (cell lysates) are added to the well with a solution containing the detection antibody labeled with an electrochemiluminescent (ECL) compound, MSD SULFOTAG™ label, over the course of one or more incubation periods. The total protein present in the sample binds to the capture antibodies immobilized on the working electrode surface; recruitment of the labeled detection antibody by bound phospho-p70S6K completes the sandwich. MSD Read Buffer that provides the appropriate chemical environment for ECL is added and the plate is read using an MSD SECTOR™ Imager. Inside the SECTOR Imager, a voltage is applied to the plate electrodes which cause the labels bound to the electrode surface to emit light. The instrument measures intensity of the emitted light to afford a quantitative measure of the amount of phosphorylated protein present in the sample.
Cells were plated in 96-well flat bottom plates at the required density determined for each cell line and the cells were allowed to equilibrate at 37° C., 5% CO2 overnight. The following day, the cells were treated with Compound 1 over a range of concentrations for one hour in 5% CO2 at 37° C. After the incubation period, the culture medium was removed carefully with an aspirator. The plate was placed on ice and 50 μL of 1× Tris Lysis Buffer were added to each well. The plate was placed on a shaker at 4° C. for one hour to lyse the cells. At that point, the plate was either frozen at −80° C. for later analysis or immediately assayed for phosphoproteins as described below. To monitor interassay variability, Compound 1 was compared among all plates as a reference standard.
The assay plate was incubated with 150 μL of MSD Blocking Buffer for one hour with shaking at room temperature. The plates were washed 3 times with Tris Wash Buffer. Then 35 μL of cell lysate was added to the wells and incubated for one hour with shaking at room temperature. The solution was removed from the wells and the plate was washed 3 times with wash buffer. Twenty-five microliters of the appropriate antibody solution was then incubated for one hour with shaking at room temperature. The solution was removed from the wells and the plate was washed 3 times with wash buffer. Then 150 μL of 1×MSD Read Buffer T was added to each well. The plate was read on the SECTOR Imager plate reader.

Phospho-GSK3β(S9) = assay: Luminex multiplex assay, Phospho-GSK3β(S9); details: PC3 cell line; read-out: Luminex GSK-3β
Method in brief: (§1)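 Cells (PC3; HCT-116, MDA-MB-231 and HT29 with 500 ng/mL recombinant human IGF-I for the final 10 min) treated with compound or rapamycin over a concentration range for 1 h at 37° C, 5% CO2. Lysates read by bead-based Luminex sandwich immunoassay, 3 h at room temperature, RPE anti-rabbit detection, quantified against phosphoprotein standard curves.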

Phospho-PRAS40(T246) = assay: Luminex multiplex assay, Phospho-PRAS40(T246); details: PC3 cell line; read-out: Luminex PRAS40
Method in brief: as §1

Phospho-4E-BP1(T46) = assay: Luminex multiplex assay, Phospho-4E-BP1(T46); details: not inhibited up to concentrations tested; read-out: inhibition of 4E-BP1(T46) phosphorylation
Text: Determination of Phospho-GSK3β(S9), Phospho-PRAS40(T246) and Phospho-4E-BP1(T46) and the Effect of Compound 1 or Rapamycin.
The multiplex Luminex assay format differs from conventional enzyme-linked immunosorbent assay (ELISA) in that the multiplex capture antibody is attached to a polystyrene bead whereas the ELISA capture antibody is attached to the microplate well. The use of the suspension bead-based technology enables the multiplexing capabilities of the Luminex assays. The xMAP® technology uses 5.6 micron polystyrene microspheres, which are internally dyed with red and infrared fluorophores of differing intensities. Each bead is given a unique number, or bead region, allowing differentiation of one bead from another. Beads covalently bound to different specific antibodies can be mixed in the same assay, utilizing a 96-well microplate format. At the completion of the sandwich immunoassay, beads can be read, using the Luminex 100™ or Luminex 200 detection system, in single-file by dual lasers for classification and quantification of each analyte. The Akt-Pathway Phospho 5-plex kit used was custom made and includes the ability to simultaneously measure p-GSK3β (S9), p-PRAS40(T246), and p-4E-BP1(T46).
Cells were plated at the required density. The cells were treated with either Compound 1 or rapamycin over a range of concentrations for 1 hour in 5% CO2 at 37° C. Compound 1 and rapamycin were used at the same concentrations as for the proliferation assay. As for the cell proliferation assay, a reference standard was included in the assay for PC3 cells and the coefficient of variation for assay of p-GSK3β(S9) was 37.8% (n=30), p-PRAS40(T246) was 27.8% (n=30) and for p4E-BP1(T46) was 13.5% (n=4). For three cell lines (HCT-116, MDA-MB-231 and HT29) in the assay for phosphorylation of GSK3β, PRAS40 and 4E-BP1, IGF-I stimulation (500 ng/mL, recombinant human IGF-I) for the last 10 min of incubation was used. The media was aspirated from the wells and the plate was placed on ice. Then 35 μL of Lysis Buffer was added to each well and incubated on ice for at least 30 minutes. During the incubation, the standard curve for each phosphoprotein was prepared. The standards provided were reconstituted and serial dilutions were prepared according to the manufacturer's instructions. At the end of the cell lysis step, […] of the lysate was transferred to a V-bottom plate and spun at 4° C. at 2000 rpm for 5 minutes. Both the 1× Luminex bead and 1× detector antibody solutions were prepared during this time. The 1× bead solution was vortexed and 25 μL was added into each well of a black round bottom plate. Then 50 μL of the 1× detector antibody was added to each well. Fifty microliters (50 μL) of the prepared standards were added to the designated wells. Then 25 μL of the assay diluent was added to each well designated for the compound-treated cell lysates. At the end of the spin, 25 μL of cell lysate was added to the corresponding wells of the black assay plate. The assay plate was covered with the white plate lid and incubated for 3 hours at room temperature on an orbital shaker.
Approximately 10-15 minutes prior to the end of the first incubation, the secondary antibody solution was prepared according to the vendor's protocol. Goat anti-rabbit R-phycoerythrin red fluorescent protein (RPE) supplied as a 10× concentrate was diluted to generate a 1× goat anti-rabbit RPE stock. The 96-well filter plate was pre-wet with 200 μL of 1× Working wash solution. At the end of the 3 hour incubation, a multichannel pipette was used to transfer the entire contents from each assay well into the wells of the filter plate. The liquid from the wells was removed by aspiration with the vacuum manifold. Then 200 μL of 1× Working wash solution was added into each well. The wash solution was aspirated using the vacuum manifold after 15-30 seconds. This wash step was repeated one time. The bottom of the plate was blotted on clean paper towels to remove residual liquid. […]

S6RP(S235/S236) = assay: Inhibition of S6RP(S235/S236) phosphorylation in cell lines; details: Homo sapiens, read-out: IC50 for inhibition of S6RP(S235/S236) phosphorylation
Akt(S473) = assay: Inhibition of Akt(S473) phosphorylation in cell lines; details: data not shown
[1] = PC3 cell line, read-out: Luminex p70S6K
[2] = PC3 cell line, read-out: MSD GSK-3β
[3] = PC3 cell line, read-out: MSD p70S6K

| Structure (SMILES) | IC50 (p70S6K; [1]) [nM] | IC50 (GSK-3β; [2]) [nM] | IC50 (Phospho-p70S6K (T389); [3]) [nM] | IC50 (Phospho-GSK3β(S9)) [nM] | IC50 (Phospho-PRAS40(T246)) [nM] | other results |
| --- | --- | --- | --- | --- | --- | --- |
| COCCN1C(=O)CNc2ncc(-c3ccc(-c4nnc[nH]4)nc3C)nc21 [A-9, 1-(2-methoxyethyl)-7-(2-methyl-6-(4H-1,2,4-triazol-3-yl)pyridin-3-yl)-3,4-dihydropyrazino[2,3-b]pyrazin-2(1H)-one] | – | – | – | – | – | IC50 (p70S6K; Homo sapiens, HCT-116, HCT116 cell line, IGF, read-out: Luminex p70S6K (IGF)): 103 nM; IC50 (p70S6K; Homo sapiens, U-87 MG, U87MG cell line, read-out: Luminex p70S6K): 37.7 nM; IC50 (GSK-3β; Homo sapiens, HCT-116, HCT116 cell line, IGF, read-out: MSD GSK-3β (IGF)): > 2000 nM; IC50 (GSK-3β; Homo sapiens, U-87 MG, U87MG cell line, read-out: MSD GSK-3β): > 2000 nM; IC50 (Phospho-p70S6K (T389); Homo sapiens, HCT-116, HCT116 cell line, IGF, read-out: MSD p70S6K (IGF)): 846 nM; IC50 (Phospho-p70S6K (T389); Homo sapiens, U-87 MG, U87MG cell line, read-out: MSD p70S6K): 268 nM |
| O=c1[nH]c2ncc(-c3ccc(-c4nc[nH]n4)cc3)nc2n1CCC1CCOCC1 [C-2] | 30 | > 1500 | 46 | 255 | 180 | – |
| Cc1nc(-c2nnc[nH]2)ccc1-c1cnc2c(n1)N(CCC1CCOCC1)C(=O)CN2 [C-9] | – | 213 | 4 | 43 | 37 | – |
| CCn1c(=O)[nH]c2ncc(-c3ccc(-c4ncn[nH]4)c(F)c3C)nc21 [C-12] | 79 | > 5000 | 436 | 936 | 1120 | – |
| COCCN1C(=O)CNc2ncc(-c3ccc(-c4nnc[nH]4)nc3C)nc21 [C-14] | – | 366 | 31 | 366 | 61 | – |
| COC1CCC(N2C(=O)CNc3ncc(-c4ccc(C(C)(C)O)nc4)nc32)CC1 (stereo not shown) [C-15] | 32 | > 500 | 82 | 240 | 96 | – |
| COC1CCC(N2C(=O)CNc3ncc(-c4ccc(-c5nnc[nH]5)nc4C)nc32)CC1 (stereo not shown) [C-16] | 3 | 152 | 13 | 141 | 43 | – |
| CCN1C(=O)CNc2ncc(-c3ccc(-c4nnc[nH]4)nc3C)nc21 [C-54] | 13 | 181 | 31 | 370 | 39 | – |
| Cc1nc(-c2nnc[nH]2)ccc1-c1cnc2c(n1)N(C(C)C)C(=O)CN2 [C-69] | – | 394 | 80 | 342 | 285 | – |
| CCN1C(=O)CNc2ncc(-c3cnc4[nH]ccc4c3)nc21 [C-103] | 150 | > 500 | > 500 | 153 | 696 | – |
| CO[C@H]1C[C@@H]2CC[C@@H](C)[C@@](O)(O2)C(=O)C(=O)N2CCCC[C@H]2C(=O)O[C@H]([C@H](C)C[C@@H]2CC[C@@H](O)[C@H](OC)C2)CC(=O)[C@H](C)/C=C(\C)[C@@H](O)[C@@H](OC)C(=O)[C@H](C)C[C@H](C)/C=C/C=C/C=C/1C [rapamycin, reference compound] | – | – | – | – | – | IC50 (Phospho-4E-BP1(T46)): > 10000 nM; IC50 (S6RP(S235/S236); HCT-116, HCT116 cell line): 0.029 nM; IC50 (S6RP(S235/S236); PC-3, PC3 cell line): 0.019 nM; inhibition of the phosphorylation of Akt(S473) (Akt(S473)): did not inhibit |

From US9557338B2 (SIGNAL PHARMACEUTICALS, LLC, priority 2012, dated 2017)
